This note sets out measurements from ChEMBL document CHEMBL1914392, “Comparative studies on interactions of baicalein, baicalin and scutellarin with lysozyme” (2011).

The species named for assay [1] is Gallus gallus. The experiment in a line: Binding affinity to hen egg white lysozyme assessed as reduction in fluorescence intensity at 1 to 7 x 10^-6 M at 298 K.
Assay [2] is filed under the species Gallus gallus. The experiment in a line: Binding affinity to hen egg white lysozyme in presence of 2 x10'-3 M.
Assay [3] is filed under the species Gallus gallus. The experiment in a line: Binding affinity to hen egg white lysozyme assessed as effective quenching constant at 298 K by Lineweaver-Burk plot analysis.
Assay [4] is filed under the species Gallus gallus. The experiment in a line: Binding affinity to hen egg white lysozyme assessed as reduction in fluorescence intensity at 1 to 7 x 10^-6 M at 310 K.
The species named for assay [5] is Gallus gallus. The experiment in a line: Binding affinity to hen egg white lysozyme at 310 K.
The species entered for assay [6] is Gallus gallus. The experiment in a line: Binding affinity to hen egg white lysozyme assessed as quenching rate constant at 310 K by Stern-Volmer plot analysis.
The species entered for assay [7] is Gallus gallus. The experiment in a line: Binding affinity to hen egg white lysozyme assessed as Stem-Volmer dynamic quenching constant at 298 K by Stern-Volmer plot analysis.
The subject of assay [8] is Staphylococcus aureus. The experiment in a line: Antibacterial activity against Staphylococcus aureus in presence of 25 mg/L lysozyme. It counts as functional.
The species entered for assay [9] is Gallus gallus. The experiment in a line: Binding affinity to hen egg white lysozyme assessed as quenching rate constant at 298 K by Stern-Volmer plot analysis.
The species named for assay [10] is Gallus gallus. The experiment in a line: Binding affinity to hen egg white lysozyme assessed as Stem-Volmer dynamic quenching constant at 310 K by Stern-Volmer plot analysis.
Assay [11] is filed under the species Gallus gallus. The experiment in a line: Binding affinity to hen egg white lysozyme assessed as effective quenching constant at 310 K by Lineweaver-Burk plot analysis.
The test system of assay [12] is Staphylococcus aureus. The experiment in a line: Antibacterial activity against Staphylococcus aureus. It counts as functional.
Assay [13] is filed under the species Gallus gallus. The experiment in a line: Binding affinity to hen egg white lysozyme at 298 K.

Converted amounts (≈) assume the structure as drawn. The source made the active and inactive calls. The rule behind the calls is not given here.

What is called MIC50 is the lowest concentration that inhibits either 50% of growth or 50% of the strains tested, depending on the study. Regarding `O=c1cc(-c2ccccc2)oc2cc(O)c(O)c(O)c12` [BAICALEIN], the outcome in the assay listed under Gallus gallus [1] and in the assay filed under Gallus gallus [4] was Active. The figures for the K in the assay filed under Gallus gallus [2], in the assay filed under Gallus gallus [5] and in the assay listed under Gallus gallus [13] were 1.5 ×10⁸ Lmol, 2.14 ×10⁵ L/mol and 3.39 ×10⁵ L/mol, respectively. Moreover, the Kq in the assay listed under Gallus gallus [3] was determined as 1.77 ×10⁵ L/mol; in the assay listed under Gallus gallus [6] it was 1.75 ×10¹³ L/mol/s; in the assay listed under Gallus gallus [9], 2.02 ×10¹³ L/mol/s; in the assay listed under Gallus gallus [11], 1.68 ×10⁵ L/mol. The results for the KSV in the assay listed under Gallus gallus [7] and in the assay filed under Gallus gallus [10] were 2.02 ×10⁵ L/mol and 1.75 ×10⁵ L/mol, respectively. Further, the results for the MIC50 with Staphylococcus aureus [8] and in the assay on Staphylococcus aureus [12] were 350 µg/mL and 550 µg/mL (≈ 2040 µM), respectively.

With `CC(C)(CO)[C@@H](O)C(=O)NCCC(=O)O`, the Kq was 1.28 ×10⁵ L/mol in the assay filed under Gallus gallus [3], 8.03 ×10¹² L/mol/s in the assay listed under Gallus gallus [6], 1.02 ×10¹³ L/mol/s in the assay filed under Gallus gallus [9] and 5.27 ×10⁴ L/mol in the assay filed under Gallus gallus [11]. Also, the KSV came out at 1.04 ×10⁵ L/mol in the assay filed under Gallus gallus [7] and 8.05 ×10⁴ L/mol in the assay listed under Gallus gallus [10].

As for `O=C(O)[C@H]1O[C@@H](Oc2cc3oc(-c4ccccc4)cc(=O)c3c(O)c2O)[C@H](O)[C@@H](O)[C@@H]1O` [BAICALIN], the outcome in the assay listed under Gallus gallus [1] and in the assay listed under Gallus gallus [4] was Active. Besides, the K was 1.17 ×10⁶ Lmol in the assay listed under Gallus gallus [2], 1.02 ×10⁵ L/mol in the assay filed under Gallus gallus [5] and 2.95 ×10⁴ L/mol in the assay listed under Gallus gallus [13]. Also, the Kq in the assay filed under Gallus gallus [3] came to 1.74 ×10⁵ L/mol; in the assay filed under Gallus gallus [6] it was 1.14 ×10¹³ L/mol/s; in the assay listed under Gallus gallus [9], 1.25 ×10¹³ L/mol/s; in the assay listed under Gallus gallus [11], 1.16 ×10⁵ L/mol. In addition, the KSV in the assay listed under Gallus gallus [7] stood at 1.25 ×10⁵ L/mol; in the assay filed under Gallus gallus [10], 1.14 ×10⁵ L/mol. For the same molecule, the MIC50 with Staphylococcus aureus [8] stood at 350 µg/mL; against Staphylococcus aureus [12] it was 450 µg/mL (≈ 1010 µM).

On to `O=C(O)[C@H]1O[C@@H](Oc2cc3oc(-c4ccc(O)cc4)cc(=O)c3c(O)c2O)[C@H](O)[C@@H](O)[C@@H]1O` [SCUTELLARIN], for which the outcome in the assay listed under Gallus gallus [1] and in the assay filed under Gallus gallus [4] was Active. The values for the K in the assay listed under Gallus gallus [2], in the assay listed under Gallus gallus [5] and in the assay listed under Gallus gallus [13] were 2.24 ×10⁶ Lmol, 3.98 ×10⁵ L/mol and 7.76 ×10⁵ L/mol, respectively. Moreover, the Kq in the assay filed under Gallus gallus [3] was determined as 1.25 ×10⁵ L/mol; in the assay filed under Gallus gallus [6], 1.55 ×10¹³ L/mol/s; in the assay filed under Gallus gallus [9], 1.63 ×10¹³ L/mol/s; in the assay filed under Gallus gallus [11] it was 1.15 ×10⁵ L/mol. Also, the values for the KSV in the assay listed under Gallus gallus [7] and in the assay listed under Gallus gallus [10] were 1.63 ×10⁵ L/mol and 1.55 ×10⁵ L/mol, respectively. Besides, the values for the MIC50 in the assay with Staphylococcus aureus [8] and against Staphylococcus aureus [12] were 500 µg/mL and 650 µg/mL (≈ 1410 µM), respectively.
